Reference: patent publication US10577381B2, “Prodrugs of 2,4-pyrimidinediamine compounds and their uses” (Rigel Pharmaceuticals, Inc., priority 2005, dated 2020)
≈ marks a conversion by molar mass, not a printed value. Entries after “also recorded” stand apart in the source; their conditions may differ. Read-outs that look alike come from different tables or passages of the source.

What was measured:
[1] = Water solubility in aqueous buffer; format: physicochemical
[2] = Stability under acidic and neutral conditions at 37° C.; format: physicochemical; settings: FIG. 8
[3] = Conversion of prodrug to drug in microsome preparations; format: in vitro ADME, rat
Text: (§1) Although phosphate-containing prodrugs suitable for oral administration are of interest, skilled artisans will appreciate that prodrugs including phosphate-containing progroups R^p can be administered via other routes of administration, as phosphatases are distributed throughout the body. […] Thus, the only requirement is that the particular phosphate-containing progroup R^P selected should be removable under the conditions of intended use.

[4] = Stability / hydrolysis in rat plasma; format: in vitro ADME; settings: FIG. 10
Text: as §1
The presence of Phosphatase activity in rat plasma was confirmed using p-nitrophenyl phosphate—a known substrate for phosphatase.

[5] = Pharmacokinetics after IV and oral dosing in rats; format: in vivo, Sprague-Dawley rats
Protocol: Prodrug Compound 4 was tested for oral bioavailability. For the study, the prodrug was dissolved in various vehicles (e.g. PEG 400 solution and CMC suspension) for intravenous and oral dosing in the rats. […] Following administration of the prodrug and/or drug, plasma samples were obtained and extracted. The plasma concentrations of the prodrug and/or drug were determined by high performance liquid chromatography/tandem mass spectrometry (LC/MS/MS) methods. Pharmacokinetic analyses were performed based on the plasma concentration data. The pharmacokinetic parameters of interest include Clearance (CL), Volume of distribution at steady-state (Vss), terminal half-life (t1/2), and oral bioavailability (% F).
Referring to FIG. 4, PK profiles are shown for IV and PO administration in Spraque-Dawley rats. For IV administration, Compound 4 was dissolved in PEG-400 and administered at a dose of 1 mg/kg.
FIG. 5 summarizes the PK parameters for the study described in FIG. 4.
FIG. 11 illustrates the absorption of prodrug Compound 4 from different vehicles.

[6] = test system: Cord-Blood Derived Primary Human Mast Cells (CHMC); assay: FcεRI-dependent activation of CHMC, tryptase released upon degranulation; format: cell-based; settings: Mast cell, activity of tryptase released upon degranulation
CHMCs = assay: Ionomycin-induced degranulation of CHMCs; format: cell-based, Human
LTC4 = assay: FcεRI-dependent production and release of LTC4; format: cell-based; settings: Homo sapiens
cytokines = assay: FcεRI-dependent production and release of cytokines; format: cell-based; settings: Homo sapiens; range over cytokines; read-out: EC50, FcεRI-dependent production and release of all cytokines tested
[7] = test system: IC-mediated vascular edema (Arthus reaction); assay: Reverse Passive Arthus (RPA) reaction; format: in vivo, rat
Text: IC-mediated acute inflammatory tissue injury is implicated in a variety of human autoimmune diseases, including vasculitis, serum sickness, systemic lupus erythematosus, RA, and glomerulonephritis. The classical experimental model for IC-mediated tissue injury is the Reverse Passive Arthus (RPA) reaction. Intravenous injection of antigen (ovalbumin, OVA) following intradermal injection of antibodies specific to OVA (rabbit anti-OVA IgG) results in perivascular deposition of IC and a rapid inflammatory response characterized by edema, neutrophil infiltration, and hemorrhage at the injection sites (Szalai, et al., 2000, J. Immunol. 164(1):463-468).

[8] = test system: collagen antibody-induced arthritis; assay: Collagen antibody-induced arthritis (CAIA); format: in vivo, Balb/c mice
Text: This passive model differs from the traditional rodent collagen-induced arthritis (CIA) in that disease symptoms appear quickly (developing within 24-48 hrs after an IV-injection of antibodies), arthritis is inducible in both CIA-susceptible and CIA-resistant mouse strains, and it allows evaluation of inflammation that is independent of antibody production. CAIA was induced in Balb/c mice by intravenous injection of Arthrogen-CIA® Monoclonal Antibody Blend (Chemicon International, Inc., Temecula, Calif.) via the tail vein, followed 2 days later by an intraperitoneal injection of LPS. […] The severity of the arthritis in hind-paws was scored daily (scale of 0-4 per paw, sum of scores for both hind paws).

[9] = test system: collagen-induced arthritis; assay: Collagen-induced arthritis (CIA); format: in vivo, Syngeneic LOU rats
Text: One of the experimental models for IC-mediated tissue injury is the CIA in rodents (Kleinau et al., 2000, J. Exp. Med. 191:1611-1616). Injection of type II collagen (CII) into rodents produces an immune reaction that characteristically involves inflammatory destruction of cartilage and bone of the distal joints with concomitant swelling of surrounding tissues. CIA in rats is commonly used to evaluate compounds that might be of potential use as drugs for treatment of rheumatoid arthritis and other chronic inflammatory conditions and is induced in susceptible strains of either mice or rats by injection of CII in incomplete Freund's adjuvant (IFA). Administration of this emulsion gives rise to polyarthritis, characterized by synovial hyperplasia, infiltration of mononuclear cells, pannus formation, and destruction of cartilage and bone. […] Syngeneic LOU rats were immunized on Day 0 with native chicken CII/IFA. Oral treatment began at the onset of arthritis symptoms (Day 10). […] Hind limbs were scored daily for clinical arthritis severity using a standardized method based on the degree of joint inflammation. High resolution digital radiographs of hind limbs were obtained at the conclusion of the study (Day 28). These limbs were also analyzed for histopathologic changes. IgG antibodies to native CII were measured in quadruplicate by ELISA. […] Brahn. 2004). Blinded composite histopathologic studies confirmed the regression of pannus and erosions: […] Antibodies to native CII were not decreased in Compound 1-treated rats.

[10] = Safety pharmacology: cardiovascular study; format: in vivo; settings: 50 mg/kg
Protocol: (§2) GLP toxicology studies included negative mutagenicity and clastogenicity studies (Ames, chromosomal aberration, and mouse micronucleus). […] The No Observed Adverse Effect Level (NOAEL) is 10-30 mg/kg/day for rats and 100 mg/kg/day for monkeys.

[11] = Safety pharmacology: CNS (Irwin) study; format: in vivo; settings: 50 mg/kg
Protocol: as §2

[12] = GLP mutagenicity and clastogenicity studies (Ames, chromosomal aberration, mouse micronucleus)
Protocol: as §2

[13] = monkey, in vivo
Protocol: as §2

[14] = rat, in vivo
[15] = water solubility, aqueous buffer under physiological conditions, read-out: Solubility

SMILES: COc1cc(Nc2ncc(F)c(Nc3ccc4c(n3)N(COP(=O)(O)O)C(=O)C(C)(C)O4)n2)cc(OC)c1OC [Compound 4, N4-(2,2-dimethyl-4-[(dihydrogenphosphonoxy)methyl]-3-oxo-5-pyrido[1,4]oxazin-6-yl)-5-fluoro-N2-(3,4,5-trimethoxyphenyl)-2,4-pyrimidinediamine]
- Solubility of prodrug relative to active drug Compound 1 ([1]; same conditions, Compound 4 vs Compound 1): approximately 2000 times
- solubility [1, 15]: > 5000 µg/mL
- stability of prodrug [2]: stable
- conversion of prodrug Compound 4 to drug Compound 1 ([3]; microsomal preparations obtained from Xenotech, FIG. 9): failed to convert
- conversion of prodrug Compound 4 to drug Compound 1 ([3]; rat intestinal and hepatic microsomes from a different source (data not shown)): metabolize to the active drug Compound 1; also recorded: conversion of Compound 4 to Compound 1 was observed
- stability in rat plasma, hydrolysis to drug Compound 1 [4]: metabolize to the active drug Compound 1; also recorded: unstable
- plasma levels of drug metabolite Compound 1 after dosing prodrug ([5]; Compound 4 given orally in PEG-400): high levels
- disappearance / clearance of prodrug from plasma ([5]; IV, 1 mg/kg in PEG-400, 1 mg/kg): Rapid disappearance; also recorded: rapidly cleared
- systemic presence of prodrug after oral dosing ([5]; given orally in PEG-400): no prodrug Compound 4 was present systemically
- AUC/dose of drug Compound 1 exposure (absorption), prodrug vs drug ([5]; oral, Compound 1 2.5 mg/kg in PEG-400 vs Compound 4 4 mg/kg in PEG-400, FIG. 6): nearly identical
- absorption from different vehicles ([5]; oral, rats, PEG-400 and carboxymethylcellulose solutions, powder in hard gelatin capsules, FIG. 11): absorbed equally well; also recorded: not dependent on formulation

SMILES: COc1cc(Nc2ncc(F)c(Nc3ccc4c(n3)NC(=O)C(C)(C)O4)n2)cc(OC)c1OC [Compound 1, N4-(2,2-dimethyl-3-oxo-4H-5-pyrido[1,4]oxazin-6-yl)-5-fluoro-N2-(3,4,5-trimethoxyphenyl)-2,4-pyrimidinediamine]
- solubility ([1]; aqueous buffer, phosphate buffer at pH=7.5, data not shown, read-out: measured solubility): < 1 µg/mL
- solubility [1, 15]: 1 to 2 µg/mL (≈ 2.13 to 4.25 µM)
- EC50 [6]: ~43 nM
- inhibition of ionomycin-induced degranulation (CHMCs): does not inhibit
- EC50 (LTC4): 39 nM
- EC50 (cytokines): 158 to 462 nM
- inhibition at 10 mg/kg ([7]; Rattus norvegicus, 10 mg/kg oral, compared with vehicle control, read-out: inhibition of extravascular leakage of Evans blue dye (OD610) from tissue biopsies): 80%
- cutaneous RPA reaction and inflammatory edema ([7]; single oral treatment one hour prior to antigen/antibody administration): reduced the cutaneous RPA reaction and inflammatory edema in a dose-dependent manner
- arthritis severity, disease incidence, time of onset ([8]; lower dose levels, differences not significant (p>0.05)): trend toward reduced arthritis severity, disease incidence, and time of onset
- clinical arthritis vs vehicle ([8]; oral, b.i.d., p<0.05): significantly reduced clinical arthritis
- arthritis severity ([9]; 30 mg/kg q.d. p.o., evident within 7 days after initiation of therapy, p<0.05): significant reduction
- Mean modified Mankin scores (histopathology, pannus and erosions) ([9]; 30 mg/kg, p<0.001 vs vehicle): 3.7±0.9
- clinical score ([9]; Day 28, 30 mg/kg q.d. p.o., p<0.001 vs vehicle): 2.54±0.98
- joint damage, blinded radiographs ([9]; Day 28, p<0.02 vs vehicle): 1.63±0.67
- cardiovascular effect [10]: slight reduction in heart rate and increase in RR interval
- behavioral effect [11]: slight effect on a few behavioral parameters
- mutagenicity and clastogenicity [12]: negative
- effect on hematology and bone marrow cellularity [13]: reversible effect
- CD45RA+ cells (immunophenotyping) [14]: significant increase
- Histopathology [14]: mild reductions in marrow cellularity
- effect on hematology, liver transaminase (mild), spleen and thymus size, bone marrow cellularity [14]: reversible effect
- humoral immunity, anti-KLH antibody assessment [14]: no evidence for untoward effects
- percentage of CD3+ cells (immunophenotyping) [14]: significant decrease
